Read-outs that look alike come from different tables or passages of the source.
Columns and labels:
PRMT5 [1] = target: T1, PRMT5 (Homo sapiens, UniProt O14744); assay: PRMT5 biochemical IC50 assay with SAM as cofactor; details: PRMT5, SAM as cofactor; read-out: SAM IC50
T1 construct: purchased Viva (custom protein)

PRMT5 [2] = target: T1, PRMT5; assay: PRMT5 biochemical IC50 assay with no cofactor; details: PRMT5, no cofactor
Text: Table 1 indicates IC50 values (μM) against PRMT5 for exemplary compounds in the presence of SAM as cofactor, with no cofactor, and with MTA as cofactor, respectively (columns 4-6). […] Ki values can be calculated from the IC50 values as described in the Examples section. As detailed in the Examples section, for the assay performed in the presence of SAM, IC50=Ki×1.5 (Ki=IC50/1.5).

PRMT5 [3] = target: T1, PRMT5; assay: PRMT5 biochemical IC50 assay with MTA as cofactor; details: PRMT5, MTA as cofactor; read-out: MTA IC50
[4] = tested on: HAP1 MTAP-intact cell line; assay: SDMA in-cell western assay, HAP1 MTAP-intact; type: cell-based; details: Homo sapiens
Method in brief: (§1)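 MTAP-null vs endogenous-MTAP HAP1 isogenic cells; in-cell western SDMA readout; IC50 per line.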

[5] = tested on: HAP1 MTAP-deleted cell line; assay: SDMA in-cell western assay, HAP1 MTAP-deleted; type: cell-based; details: for IC50: Homo sapiens; for MTAP intact/deleted ratio: IC50 ratio HAP1 MTAP-intact / HAP1 MTAP-deleted, SDMA in-cell western
Method in brief: as §1

[6] = tested on: HAP1 MTAP-deleted cell line; assay: Viability assay, MTAP-deleted cell line; type: cell-based; details: Homo sapiens
Text: Table 1 additionally indicates IC50 values in a viability assay for the MTAP-deleted cell line (column 10), indicating the effect of treatment with compound on cell survival.

[7] = HAP1, SDMA in-cell western, HAP1 MTAP-intact, read-out: MTAP HAP1 intact IC50
[8] = HAP1, SDMA in-cell western, HAP1 MTAP-deleted, read-out: HAP1 MTAP deleted IC50
[9] = HAP1, viability assay, MTAP-deleted cell line, read-out: HAP1 MTAP deleted viability
[10] = HAP1, SDMA in-cell western, HAP1 MTAP-deleted, read-out: HAP 1 MTAP deleted IC50
[11] = read-out: No Cofactor/ rel IC50
[12] = HAP1, viability, HAP1 MTAP-deleted cell line, read-out: HAP1 MTAP deleted viability

T1 sequence (O14744 whole entry): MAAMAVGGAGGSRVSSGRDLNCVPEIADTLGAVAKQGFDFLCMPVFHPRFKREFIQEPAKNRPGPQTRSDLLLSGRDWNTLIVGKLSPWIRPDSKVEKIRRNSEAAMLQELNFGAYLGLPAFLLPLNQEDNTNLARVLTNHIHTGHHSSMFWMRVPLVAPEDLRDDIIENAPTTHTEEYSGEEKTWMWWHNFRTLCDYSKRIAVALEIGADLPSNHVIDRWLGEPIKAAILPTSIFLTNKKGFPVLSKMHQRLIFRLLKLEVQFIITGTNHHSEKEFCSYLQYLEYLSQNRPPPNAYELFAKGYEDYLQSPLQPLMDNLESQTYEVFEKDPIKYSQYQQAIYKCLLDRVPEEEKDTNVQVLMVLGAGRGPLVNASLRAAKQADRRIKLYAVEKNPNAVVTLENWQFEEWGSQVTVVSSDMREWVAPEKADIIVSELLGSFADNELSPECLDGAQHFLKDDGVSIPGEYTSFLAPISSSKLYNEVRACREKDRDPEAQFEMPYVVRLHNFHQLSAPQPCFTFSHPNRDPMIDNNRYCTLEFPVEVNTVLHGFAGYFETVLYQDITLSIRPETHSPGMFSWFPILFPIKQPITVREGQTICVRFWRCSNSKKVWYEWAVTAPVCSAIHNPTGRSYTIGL
T1 sequence (Q9BQA1 whole entry partner): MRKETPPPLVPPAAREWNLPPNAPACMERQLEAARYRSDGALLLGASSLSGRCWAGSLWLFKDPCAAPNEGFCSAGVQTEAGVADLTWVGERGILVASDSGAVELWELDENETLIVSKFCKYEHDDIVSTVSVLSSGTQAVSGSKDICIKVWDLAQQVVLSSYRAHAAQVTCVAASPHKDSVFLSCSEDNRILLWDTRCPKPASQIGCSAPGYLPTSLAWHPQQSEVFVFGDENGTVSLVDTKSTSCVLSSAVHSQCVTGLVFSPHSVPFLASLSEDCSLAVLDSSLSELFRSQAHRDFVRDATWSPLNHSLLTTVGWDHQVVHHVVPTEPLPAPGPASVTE

SMILES	IC50 (PRMT5 [1])	IC50 (PRMT5 [2]; read-out: No Cofactor/rel IC50)	IC50 (PRMT5 [3])	IC50 [4, 7]	IC50 [5, 8]	IC50 [5, 10]	IC50 (PRMT5 [2]; [11])	MTAP intact/deleted ratio [5]	IC50 [6, 9]	IC50 [6, 12]	IC50 ([4]; HAP1, read-out: MTAP HAP1 intact IC50)	IC50 ([5]; HAP1, read-out: HAP1 MTAP deleted IC50)	IC50 ([6]; HAP1, read-out: HAP1 MTAP deleted viability)	IC50 ([6]; HAP1, viability IC50, MTAP-deleted cell line, read-out: HAP1 MTAP deleted viability)
C[C@@H]1CC[C@@H](c2ccc(F)c(F)c2)N(C(=O)C(=O)Nc2cncc(C(N)=O)c2)C1 (racemic) [Compound 263, rac-5-{2-[(2R,5S)-2-(3,4-Difluorophenyl)-5-methylpiperidin-1-yl]-2-oxoacetamido}pyridine-3-carboxamide]	50 to 500 nM	50 to 500 nM	< 50 nM	> 1000 nM	100 to 1000 nM			A (an IC50 ratio greater than or equal to 10 fold)	1000 to 10000 nM					
Cc1cc(NC(=O)C(=O)N2C[C@H](C)CC[C@H]2c2cscn2)cnc1N (single isomer, unassigned) [Compound 1028]	> 500 nM	> 500 nM	> 500 nM	> 1000 nM		> 1000 nM		C (an IC50 ratio of less than 3 fold)	> 10000 nM					
C[C@H]1CC[C@H](c2cccs2)N(C(=O)C(=O)Nc2cncc(C(N)=O)c2)C1 (single isomer, unassigned) [Compound 198]	50 to 500 nM	< 50 nM	< 50 nM	100 to 1000 nM	< 100 nM			A (an IC50 ratio greater than or equal to 10 fold)	< 1000 nM					
C[C@@H]1C[C@H](c2ccccc2)N(C(=O)C(=O)Nc2cncc(C(N)=O)c2)C[C@H]1C (racemic) [Compound 231, 5-[[2-[(2R,4R,5S)-4,5-dimethyl-2-phenyl-1-piperidyl]-2-oxo-acetyl]amino]pyridine-3-carboxamide]	50 to 500 nM	50 to 500 nM	< 50 nM	> 1000 nM	100 to 1000 nM			A (an IC50 ratio greater than or equal to 10 fold)	> 10000 nM					
Cc1cc(NC(=O)C(=O)N2C[C@@H](C)[C@@H](OC(C)C)C[C@@H]2c2ccccc2)cnc1N (single isomer, unassigned) [Compound 1302]	> 500 nM		> 500 nM	> 1000 nM		> 1000 nM	> 500 nM			> 10000 nM				
C[C@@H]1CC[C@@H](c2ccc(Cl)cc2)N(C(=O)C(=O)Nc2cncc(C(N)=O)c2)C1 (racemic) [Compound 212, rac-5-[[2-[(2S,5R)-2-(4-chlorophenyl)-5-methyl-1-piperidyl]-2-oxo-acetyl]amino]pyridine-3-carboxamide]	50 to 500 nM	50 to 500 nM	< 50 nM	> 1000 nM	< 100 nM			A (an IC50 ratio greater than or equal to 10 fold)	1000 to 10000 nM					
COc1ncc(NC(=O)C(=O)N2C[C@H](C)CC[C@H]2c2ccc(O)cc2)cc1C(N)=O (single isomer, unassigned) [Compound 292]	> 500 nM	> 500 nM	> 500 nM					C (an IC50 ratio of less than 3 fold)			> 1000 nM	> 1000 nM	> 10000 nM	
C[C@@H]1CC[C@@H](c2ccccc2)N(C(=O)C(=O)Nc2cnc(O)c(C(N)=O)c2)C1 (racemic) [Compound 494, rac-2-hydroxy-5-(2-((2R,5S)-5-methyl-2-phenylpiperidin-1-yl)-2-oxoacetamido)nicotinamide]	> 500 nM	50 to 500 nM	50 to 500 nM	> 1000 nM	> 1000 nM			C (an IC50 ratio of less than 3 fold)	> 10000 nM					
Cc1cc(NC(=O)C(=O)N2C[C@@H](C)CC[C@@H]2c2ccc3c(c2)CCC(=O)N3)cnc1C (single isomer, unassigned) [Compound 619]	> 500 nM	> 500 nM	> 500 nM	> 1000 nM		100 to 1000 nM		A (an IC50 ratio greater than or equal to 10 fold)						1000 to 10000 nM
C[C@@H]1CC[C@@H](c2ccc3nncn3c2)N(C(=O)C(=O)Nc2cncc(C(N)=O)c2)C1 (racemic) [Compound 272, rac-5-{2-[(2R,5S)-5-Methyl-2-{[1,2,4]triazolo[4,3-a]pyridin-6-yl}piperidin-1-yl]-2-oxoacetamido}pyridine-3-carboxamide]	50 to 500 nM	50 to 500 nM	50 to 500 nM	> 1000 nM	> 1000 nM			C (an IC50 ratio of less than 3 fold)	> 10000 nM					
Cc1cc(NC(=O)C(=O)N2C[C@H](C)CC[C@H]2c2ccnn2C)cnc1N (racemic) [Compound 235, N-(6-amino-5-methyl-3-pyridyl)-2-[(2R,5S)-5-methyl-2-(2-methylpyrazol-3-yl)-1-piperidyl]-2-oxo-acetamide]	50 to 500 nM	50 to 500 nM	50 to 500 nM	> 1000 nM	> 1000 nM			B (an IC50 ratio greater than or equal to 3 fold but lower than 10 fold)	> 10000 nM					

Now from value to molecule, other results behind:

IC50 (PRMT5 [1])	IC50 (PRMT5 [2]; read-out: No Cofactor/rel IC50)	IC50 (PRMT5 [3])	IC50 [4, 7]	IC50 [5, 8]	IC50 [5, 10]	IC50 (PRMT5 [2]; [11])	SMILES	MTAP intact/deleted ratio [5]	IC50 [6, 9]	IC50 [6, 12]	IC50 ([4]; HAP1, read-out: MTAP HAP1 intact IC50)	IC50 ([5]; HAP1, read-out: HAP1 MTAP deleted IC50)	IC50 ([6]; HAP1, read-out: HAP1 MTAP deleted viability)	IC50 ([6]; HAP1, viability IC50, MTAP-deleted cell line, read-out: HAP1 MTAP deleted viability)
50 to 500 nM	50 to 500 nM	< 50 nM	100 to 1000 nM		< 100 nM		Cc1ccc([C@H]2CC(F)(F)[C@H](C)CN2C(=O)C(=O)Nc2cnc(N)c(C)c2)cn1 (single isomer, unassigned) [Compound 973]	A (an IC50 ratio greater than or equal to 10 fold)	1000 to 10000 nM					
> 500 nM	> 500 nM	> 500 nM	> 1000 nM		> 1000 nM		Cc1cc(NC(=O)C(=O)N2C[C@H](C)CC[C@H]2c2ccc(C(F)(F)F)nc2)cnc1N (single isomer, unassigned) [Compound 1015]	C (an IC50 ratio of less than 3 fold)	> 10000 nM					
50 to 500 nM		< 50 nM	100 to 1000 nM		< 100 nM	< 50 nM	CCc1cc(NC(=O)C(=O)N2C[C@@H](C)CC[C@@H]2c2ccc(NC3CCN(C)CC3)nc2)cnc1N [Compound 1306, N-(6-Amino-5-ethyl-3-pyridyl)-2-[(2R,5S)-5-methyl-2-[6-[(1-methyl-4-piperidyl)amino]-3-pyridyl]-1-piperidyl]-2-oxo-acetamide]	A (an IC50 ratio greater than or equal to 10 fold)		< 1000 nM				
50 to 500 nM	< 50 nM	< 50 nM	100 to 1000 nM	< 100 nM			Cc1cc(NC(=O)C(=O)N2C[C@H](C)CC[C@H]2c2cccc(N(C)C)c2)cnc1N (single isomer, unassigned) [Compound 386]	A (an IC50 ratio greater than or equal to 10 fold)	< 1000 nM					
50 to 500 nM		< 50 nM	< 100 nM		< 100 nM	50 to 500 nM	CCc1cc(NC(=O)C(=O)N2C[C@H](C)C(F)(F)C[C@H]2c2ccc3[nH]ncc3c2)cnc1N (single isomer, unassigned) [Compound 1357, N-(6-amino-5-ethylpyridin-3-yl)-2-(4,4-difluoro-2-(1H-indazol-5-yl)-5-methylpiperidin-1-yl)-2-oxoacetamide]	A (an IC50 ratio greater than or equal to 10 fold)		< 1000 nM				
50 to 500 nM		< 50 nM	< 100 nM		< 100 nM	< 50 nM	CCc1cc(NC(=O)C(=O)N2C[C@@H](C)CC[C@@H]2c2ccc3sc([C@@H](C)N(C)C)nc3c2)cnc1N (single isomer, unassigned) [Compound 1316]	A (an IC50 ratio greater than or equal to 10 fold)		< 1000 nM				
> 500 nM	> 500 nM	> 500 nM	> 1000 nM	> 1000 nM			Cc1cc(NC(=O)C(=O)N2C[C@@H](C)CC[C@@H]2c2ccc(F)c(F)c2)cnc1N (single isomer, unassigned) [Compound 472]	C (an IC50 ratio of less than 3 fold)	> 10000 nM					
50 to 500 nM		< 50 nM	< 100 nM		< 100 nM	< 50 nM	CCc1cc(NC(=O)C(=O)N2C[C@@H](C)CC[C@@H]2c2ccc3sc(N4CCN(C)CC4)nc3c2)cnc1N [Compound 1244, N-(6-amino-5-ethylpyridin-3-yl)-2-((2R,5S)-5-methyl-2-(2-(4-methylpiperazin-1-yl)benzo[d]thiazol-5-yl)piperidin-1-yl)-2-oxoacetamide]	A (an IC50 ratio greater than or equal to 10 fold)		< 1000 nM				
